The record followed here is PubChem BioAssay (NCI).

Test systems include MALME-3M melanoma; LOX IMVI melanoma; NCI-H522 lung; K-562 leukemia; RPMI-8226 leukemia; HCC-2998 colon; NCI/ADR-RES ovarian; SF-268 CNS; OVCAR-5 ovarian; NCI-H226 lung; KM12 colon; SR leukemia; MDA-MB-435.
What all share (experiment): NCI-60 cell line screen, 48 h

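Each compound was tested at five concentrations against cells in 96-well plates for 48 hours. Definition used: TGI = concentration required for complete inhibition of growth.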 Some results are limits rather than exact numbers.

Regarding `C=CCn1c(N)c(C#N)c(C#N)c1-c1ccccc1`, the TGI with MALME-3M melanoma, in the assay on LOX IMVI melanoma, in the assay on NCI-H522 lung, in the assay with K-562 leukemia, in the assay on RPMI-8226 leukemia and in the assay with HCC-2998 colon was more than 100 µM throughout. Moreover, the TGI with NCI/ADR-RES ovarian, in the assay on SF-268 CNS, with OVCAR-5 ovarian, with NCI-H226 lung, in the assay on KM12 colon and in the assay on SR leukemia was more than 100 µM in each case. Also, the TGI in the assay on MDA-MB-435 is more than 100 µM.
For the compound `C=C(Cl)C(=CCl)CCC(Br)C(C)(C)Cl` (mixture of isomers), the TGI with MALME-3M melanoma, in the assay on LOX IMVI melanoma, with NCI-H522 lung, in the assay on K-562 leukemia, in the assay with RPMI-8226 leukemia and in the assay on HCC-2998 colon was more than 10 µM throughout. The TGI in the assay with NCI/ADR-RES ovarian, in the assay on SF-268 CNS, with OVCAR-5 ovarian, with NCI-H226 lung, with KM12 colon and in the assay on SR leukemia was more than 10 µM throughout. Besides, in the assay on MDA-MB-435, the TGI is more than 10 µM.
`O=c1[nH]cnc2c1cnn2Cc1cn(CCCCO)nn1`: the TGI with MALME-3M melanoma, with LOX IMVI melanoma, in the assay on NCI-H522 lung, in the assay with K-562 leukemia, with RPMI-8226 leukemia and in the assay with HCC-2998 colon was more than 100 µM each time. The TGI in the assay with NCI/ADR-RES ovarian, with SF-268 CNS, with OVCAR-5 ovarian, in the assay with NCI-H226 lung, with KM12 colon and in the assay on SR leukemia was more than 100 µM each time. The same compound registered a TGI in the assay with MDA-MB-435 of more than 100 µM.
On to `O=C1C=CC(=O)c2c1ccc1c3ccccc3n(CCCCCn3c4ccccc4c4ccc5c(c43)C(=O)C=CC5=O)c21`, for which the TGI was 31.9 µM in the assay with MALME-3M melanoma; 35 µM with LOX IMVI melanoma; 4.37 µM in the assay with NCI-H522 lung; 4.89 µM in the assay on K-562 leukemia; 18.8 µM in the assay with RPMI-8226 leukemia; more than 80.8 µM with HCC-2998 colon. Moreover, the TGI in the assay with NCI/ADR-RES ovarian was more than 64.9 µM; with SF-268 CNS, 32.7 µM; with OVCAR-5 ovarian, more than 78.1 µM; in the assay with NCI-H226 lung it was more than 100 µM; in the assay with KM12 colon, more than 100 µM; with SR leukemia it was 6.22 µM. Besides, the TGI with MDA-MB-435 was 46.3 µM.
Regarding `CN1C(=O)c2ccccc2OC12C=Cc1c(ccc3ccccc13)O2` (stereo not given), the TGI in the assay with MALME-3M melanoma was 15.6 µM; in the assay on LOX IMVI melanoma, 22.9 µM; with NCI-H522 lung it was 6.27 µM; in the assay with K-562 leukemia it was more than 31.5 µM; in the assay with RPMI-8226 leukemia it was more than 71.9 µM; with HCC-2998 colon, 16 µM. For the same compound, the TGI in the assay on NCI/ADR-RES ovarian is 6.79 µM; in the assay with SF-268 CNS it was 31.4 µM; with OVCAR-5 ovarian, 27.4 µM; in the assay with NCI-H226 lung it was 48.6 µM; in the assay with KM12 colon, 8.64 µM; in the assay with SR leukemia, more than 100 µM. For the same compound, in the assay on MDA-MB-435, the TGI was more than 24.5 µM.
Take `CC(C)(C)OC(=O)NC1CCCCC1NC(=O)C(=O)NC1CCCCC1NC(=O)OC(C)(C)C` (stereo not given): the TGI in the assay with MALME-3M melanoma, in the assay on LOX IMVI melanoma, with NCI-H522 lung, in the assay with K-562 leukemia, in the assay on RPMI-8226 leukemia and in the assay with HCC-2998 colon was more than 100 µM throughout. Moreover, the TGI with NCI/ADR-RES ovarian, with SF-268 CNS, with OVCAR-5 ovarian, in the assay with NCI-H226 lung, in the assay with KM12 colon and with SR leukemia was more than 100 µM throughout. Moreover, the TGI in the assay with MDA-MB-435 is more than 100 µM.
For the compound `COC(=O)C1=C(C(=O)OC)N(c2ccc(OC)cc2[N+](=O)[O-])C(c2ccc(C)cc2)=CC1c1ccc(OC)cc1OC` (stereo not given), the TGI in the assay with MALME-3M melanoma is more than 77.4 µM; in the assay with LOX IMVI melanoma, 6.75 µM; in the assay with NCI-H522 lung, 57.5 µM; with K-562 leukemia, more than 54.4 µM; in the assay with RPMI-8226 leukemia, 6.07 µM; in the assay with HCC-2998 colon it was 30.6 µM. For the same compound, the TGI is more than 77.8 µM in the assay on NCI/ADR-RES ovarian; more than 100 µM with SF-268 CNS; more than 100 µM in the assay with OVCAR-5 ovarian; 49.9 µM with NCI-H226 lung; 25.7 µM with KM12 colon; 27.7 µM in the assay with SR leukemia. The compound also gave a TGI in the assay with MDA-MB-435 of more than 100 µM.
Consider `C=CCc1cccc2cc(C(=O)NCc3ccccc3)c(=N)oc12`, for which the TGI in the assay on MALME-3M melanoma was 40.4 µM; with LOX IMVI melanoma it was more than 100 µM; in the assay with NCI-H522 lung, 44.2 µM; with K-562 leukemia, more than 100 µM; in the assay on RPMI-8226 leukemia it was more than 100 µM; with HCC-2998 colon, 67.8 µM. Moreover, the TGI is more than 100 µM in the assay on NCI/ADR-RES ovarian; more than 100 µM with SF-268 CNS; more than 100 µM in the assay on OVCAR-5 ovarian; 79.3 µM in the assay on NCI-H226 lung; more than 100 µM in the assay with KM12 colon; more than 100 µM in the assay on SR leukemia. In addition, in the assay on MDA-MB-435, the TGI is more than 100 µM.
With `COC(=O)c1ccc(/C=C/c2cc(O)ccc2O)cc1`, the TGI with MALME-3M melanoma was 5.64 µM; in the assay with LOX IMVI melanoma, 9.39 µM; in the assay with NCI-H522 lung it was 0.356 µM; in the assay on K-562 leukemia, 4.38 µM; in the assay on RPMI-8226 leukemia, 4.14 µM; in the assay with HCC-2998 colon, more than 59.6 µM. For the same compound, the TGI in the assay with NCI/ADR-RES ovarian was 7.72 µM; in the assay with SF-268 CNS, 8.41 µM; in the assay on OVCAR-5 ovarian, 70.3 µM; in the assay with NCI-H226 lung, more than 27 µM; with KM12 colon, 28 µM; with SR leukemia it was 3.69 µM. This compound yielded a TGI in the assay with MDA-MB-435 of 13.5 µM.
For `O=c1oc2ccc3ccccc3c2cc1-c1nc2ccccc2s1`, the TGI in the assay on MALME-3M melanoma was more than 100 µM; with LOX IMVI melanoma, more than 100 µM; in the assay on NCI-H522 lung it was more than 100 µM; with K-562 leukemia, more than 77.6 µM; with RPMI-8226 leukemia it was more than 32.8 µM; in the assay on HCC-2998 colon, more than 100 µM. Besides, the TGI was more than 100 µM in the assay with NCI/ADR-RES ovarian; more than 100 µM in the assay with SF-268 CNS; more than 100 µM in the assay on OVCAR-5 ovarian; more than 100 µM with NCI-H226 lung; more than 100 µM in the assay on KM12 colon; more than 21.5 µM in the assay on SR leukemia. This compound showed a TGI in the assay on MDA-MB-435 of more than 100 µM.
